The text below walks through data of paper PMC11096368, “Transcriptomic signature, bioactivity and safety of a non-hepatotoxic analgesic generating AM404 in the midbrain PAG region” (Scientific Reports, 2024).

One data set concerns beagle dogs. The experiment in a line: Cardiovascular effect in conscious telemetered beagle dogs (GLP). It counts as in vivo, dog. The settings on record: oral, 30, 90, 150 mg/kg. The protocol:
The effects of SRP-001 on hERG current amplitude at physiologic temperatures were evaluated over a nominal concentration range of 0.1 μM to […]. A vehicle group (10% DMSO) was included in the study for comparison, and dofetilide (10 nM) was used as a reference substance. The vehicle and positive controls indicated appropriate sensitivity of the test systems. […] Next, the potential acute effects of oral SRP-001 on cardiovascular function in conscious telemetered beagle dogs was done using a Latin Square design; 4 male naïve beagle dogs each received vehicle (10% DMSO: 10% labrasol: 80% PEG400) and three doses (30, 90, and 150 mg/kg) of SRP-001 nanosuspension by oral gavage. […] A single dose was administered on the day of dosing, and a washout period of seven days was allowed between doses. One-min means of hemodynamic parameters, as well as ECG parameters and body temperature, were measured for a period of at least 24 h. One-min tracings of the ECGs were obtained at 15 min prior to dosing and at 30 min, 1, 2, 4, 8, 12, and 24 h post-dose. Qualitative evaluation of the ECGs was done by a board-certified veterinary cardiologist.

Data set [1] deals with Salmonella typhimurium strains TA98, TA100, TA1535, TA1537, and E. coli WP2 uvrA. Nature of the data set: Ames bacterial reverse mutation assay. It counts as cell-based, Escherichia coli. As to the method:
SRP-001 was tested to evaluate its mutagenic potential by measuring its ability to induce reverse mutations at selected loci of several strains of Salmonella typhimurium (S. typhimurium) and at the tryptophan locus of Escherichia coli (E. coli) strain WP2 uvrA in the presence and absence of an exogenous metabolic activation system (Bioreliance, Rockville, MD USA). Dimethyl sulfoxide (10% DMSO) was used as the vehicle. The dose levels tested in the preliminary toxicity assay were 6.67, 10.0, 33.3, 66.7, 100, 333, 667, 1000, 3333, and 5000 µg per plate. No precipitate was observed. […] The dose levels tested in the mutagenicity assay were 100, 333, 667, 1000, 3333, and 5000 µg per plate.

The test system of data set [2] is male Sprague–Dawley rats. The experiment in a line: Pulmonary function evaluation in conscious rats (GLP). The settings on record: oral, 220, 440, 660 mg/kg. It counts as in vivo. As to the method:
The potential effects of orally administered SRP-001 on respiratory rate, tidal volume, and minute volume in conscious male Sprague–Dawley rats was studied in 24 male rats. The rodents were trained for two days in the head-out plethysmograph chamber for 15–17 min each prior to the experiment. On the day of dosing, each animal was weighed and placed in the plethysmograph chamber, and baseline respiratory parameters were obtained for 5 min following an approximately 5-min stabilization period. The rats were then removed from the chamber and dosed by oral gavage. Three groups of six male Sprague–Dawley rats each were orally administered SRP-001 at a single dose of 220, 440, or 660 mg/kg at a dose volume of 10 mL/kg. […] Following dosing, each animal was returned to its designated plethysmograph chamber, and the respiratory parameters were recorded at 30 min (± 5 min), 2, 4, and 6 h (± 15 min). Animals were allowed to stabilize in the plethysmograph chamber for at least 5 min before each reading was taken. The following parameters were acquired, recorded, and analyzed using Ponemah Physiology Platform (Ponemah v.5.20 Pulmonary); Respiratory rate, Tidal Volume, and Minute Volume, Values for the test article treated group were compared to the vehicle control values using a two-way repeated measures ANOVA followed by a Bonferroni Multiple Comparison Test (SigmaStat, v. 4.0). […]

Data set [3] has as its system male Sprague–Dawley rats. The experiment in a line: Neuropharmacological profile, modified Irwin/Functional Observational Battery (GLP). The format is in vivo. To be noted: for Body temperature versus vehicle: 1 h post-dose. The protocol:
Any potential neuropharmacological effects of orally administered SRP-001 in rats were assessed in three groups of eight male Sprague–Dawley rats. Each was orally administered SRP-001 at a single dose of 220, 440, or 660 mg/kg. Vehicle (10% labrasol: 10% DMSO: 80% PEG400) was administered to an additional group of eight rats. The dose volume was 10 mL/kg. […] All observations were made at ± 5 min for the observations through 1 h post-dose and ± 15 min for the later observations. Body temperature was measured 1 h following dose administration.

The nature of data set [4]: LC–MS/MS detection of D10-SRP-001 and AM404 in the periaqueductal gray (PAG). The format is in vivo, rats. The settings on record: 32 mg/kg ip, 30 min post-injection, rats with CFA or vehicle. The protocol:
Next, we sought to define the uptake of SRP-001 in the nociception area of the brain, the midbrain’s periaqueductal (PAG) area[42],[43]. Thirty min following ip-SRP-001 administration (32 mg/kg), the PAG was harvested and analyzed by LC/MS–MS. D10-SRP-001 was used to match the fragmentation pattern while monitoring analytes.
Deuterated compound D10-SRP-001 was synthesized by Olon Ricerca Bioscience (Concord, OH), and purity was determined to be > 99.9% by HPLC. This was used as pure analytical standard for detection of SRP-001 using an LC–MS/MS method. Similarly, pure analytical standard of AM404 (10 ng/mL) obtained from Cayman Chemical (Ann Arbor, MI) was used to characterize the full fragmentation pattern of AM404. […] Thirty min post-injection, the animals were sacrificed (same as in the CFA/von Frey model), their brains harvested, and the midbrain periaqueductal gray (PAG) region excised. SRP-001 or AM404 were extracted from the PAG using a liquid–liquid extraction method using 1:1 MeOH:H2O for LC–MS/MS and were loaded onto a liquid chromatography-tandem mass spectrophotometer for analysis. The mass spectrophotometer was operated in multiple reaction monitoring (MRM) mode using positive ion electrospray. D10-SRP-001 was detected by monitoring the m/z transition 416 → 186. AM404 was detected by monitoring the m/z transition 396 → 287.

The test system of the next data set is CD-1 male mice. The settings on record: for Mortality by 72 h: oral gavage, n = 10. The protocol:
This analysis was critical for robustly comparing their toxic effects, with a particular focus on mortality at equivalent molar concentrations.
CD-1 male mice obtained from Charles River Laboratories underwent a one-week acclimation period. They were housed under a 12-h day/night cycle, with unrestricted access to food and water. Before experimentation, mice were fasted for 15 h. […] Each treatment group consisted of 10 mice. Post-dosing, the mice were monitored at 6-h intervals over 72 h for signs of becoming moribund. An investigator blinded to the treatment groups conducted the moribund state assessment.

Structures are written as SMILES. Entries after “also recorded” stand apart in the source; their conditions may differ. Read-outs that look alike come from different tables or passages of the source.

As for `CCN(CC)C(=O)c1ccccc1S(=O)(=O)NCC(=O)Nc1ccc(O)cc1` [SRP-001, N,N-diethyl-2-[[2-(4-hydroxyanilino)-2-oxo-ethyl]sulfamoyl]benzamide], the “Cardiovascular findings (blood pressure, heart rate, ECG, body temperature)” value with beagle dogs is “did not induce any biologically relevant effects; also recorded: No significant findings”. Further, the “Dose with toxicity (reduction in the revertant count)” value in data set [1] (preliminary toxicity assay, tester strains TA1537 and WP2 uvrA, absence of S9) amounted to 5000 µg per plate. In addition, in data set [1] (up to 5000 µg per plate, presence or absence of S9 activation), the “Mutagenic response (reverse mutations)” value is “negative; also recorded: No positive mutagenic responses; also recorded: No positive mutagenic responses were observed with any of the tester strains in either the presence or absence of S9 activation”. The “Respiratory findings (respiratory rate, tidal volume, minute volume)” value in the data set with male Sprague–Dawley rats [2] was “did not induce any significant effects; also recorded: No significant findings”. Further, the “Body temperature versus vehicle” value in the data set with male Sprague–Dawley rats [3] (220 or 440 mg/kg) is recorded as “not affected”; in the data set on male Sprague–Dawley rats [3] (high-dose group (660 mg/kg)), “significantly (p ≤ 0.05) lower; also recorded: lower body temperature; also recorded: Decreased body temp”. Moreover, the “Neuropharmacological or clinical signs” value in the data set on male Sprague–Dawley rats [3] (oral, 220, 440, 660 mg/kg, through 24 h post-dose) was “No apparent neuropharmacological or clinical signs; also recorded: No apparent neuropharmacological effects”.
`CC(=O)Nc1ccc(O)cc1` [ApAP, acetaminophen, reference compound]: the “AM404 production in the periaqueductal gray region” value in data set [4] is recorded as “diminished”. Further, the “Mortality by 72 h” value with CD-1 male mice (1984 (ApAP 300 mg/kg)) is given as 1/10; with CD-1 male mice (3969 (ApAP 600 mg/kg)), 3/10; in the data set with CD-1 male mice (5954 (ApAP 900 mg/kg)) it was 7/10. Besides, the “Mortality within 72 h” value with CD-1 male mice (increasing equimolar doses, highest mortality reached) was determined as 70%.
